In brackets after ≈: the same amount, converted by molar mass.
Tests used:
[1] = Inhibition of phosphorylated FGFR2alpha in human KATO III stomach cancer cell line spiked in human whole blood incubated for 4 hrs by ELISA; format: tissue-based
NCI-H1581 = assay: Antiproliferative activity against human NCI-H1581 cells assessed as inhibition of cell proliferation incubated for 3 days by Cell Titer Aqueous96 one solution reagent assay; details: NCI-H1581, 72 h
[2] = Antiproliferative activity against human B49 assessed as inhibition of cell proliferation incubated for 3 days by Cell Titer Aqueous96 one solution reagent assay; details: KATO III, 72 h
CYP3A4 [3] = molecular target: T1, CYP3A4 (Homo sapiens, UniProt P08684); assay: Time dependent inhibition of CYP3A4 enzyme activity in human liver microsomes at 20 uM using midazolam as substrate substrate preincubated for 30 mins in presence of NADPH relative to control; format: ADME; details: probe midazolam, read-out: TDI
T1 sequence (P08684 whole entry): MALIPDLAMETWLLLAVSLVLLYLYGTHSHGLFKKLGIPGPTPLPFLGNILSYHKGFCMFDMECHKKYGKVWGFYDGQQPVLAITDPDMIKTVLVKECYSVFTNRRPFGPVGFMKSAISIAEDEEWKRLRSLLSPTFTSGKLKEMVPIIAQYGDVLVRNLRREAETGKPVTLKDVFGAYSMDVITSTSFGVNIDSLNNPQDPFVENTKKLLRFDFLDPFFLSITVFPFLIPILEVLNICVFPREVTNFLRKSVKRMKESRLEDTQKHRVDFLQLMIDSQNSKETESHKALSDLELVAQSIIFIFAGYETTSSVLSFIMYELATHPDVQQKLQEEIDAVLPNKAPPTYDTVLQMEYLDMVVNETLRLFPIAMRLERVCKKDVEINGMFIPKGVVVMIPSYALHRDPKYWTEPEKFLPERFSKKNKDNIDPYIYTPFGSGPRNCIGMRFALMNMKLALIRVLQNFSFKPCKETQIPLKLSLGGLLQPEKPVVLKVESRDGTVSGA

[4] = Solubility of the compound in FaSSIF by HPLC analysis; format: physicochemical
[5] = Oral bioavailability in cynomolgus monkey at 5 mg/kg measured after 24 hrs; format: ADME, organism-based, Macaca fascicularis; details: in vivo
[6] = Permeability across apical to basolateral membrane in human Caco-2 cells at 50 uM incubated for 120 mins by LC-MS/MS analysis; format: ADME, cell-based; details: read-out: permeability
[7] = molecular target: Mast/stem cell growth factor receptor Kit (Homo sapiens, UniProt P10721); assay: Inhibition of c-KIT (unknown origin) incubated for 90 mins in presence of ATP by HTRF assay
[8] = Intrinsic clearance in human liver microsomes at 1 uM measured up to 30 mins in presence of NADPH by LC/MS analysis; format: ADME, Microsome; details: read-out: CLH (converted)
[9] = molecular target: Vascular endothelial growth factor receptor 2 (Homo sapiens, UniProt P35968); assay: Inhibition of VEGFR2 (unknown origin) incubated for 90 mins in presence of ATP by HTRF assay
Vascular endothelial growth factor receptor 2, sequence (P35968 whole entry): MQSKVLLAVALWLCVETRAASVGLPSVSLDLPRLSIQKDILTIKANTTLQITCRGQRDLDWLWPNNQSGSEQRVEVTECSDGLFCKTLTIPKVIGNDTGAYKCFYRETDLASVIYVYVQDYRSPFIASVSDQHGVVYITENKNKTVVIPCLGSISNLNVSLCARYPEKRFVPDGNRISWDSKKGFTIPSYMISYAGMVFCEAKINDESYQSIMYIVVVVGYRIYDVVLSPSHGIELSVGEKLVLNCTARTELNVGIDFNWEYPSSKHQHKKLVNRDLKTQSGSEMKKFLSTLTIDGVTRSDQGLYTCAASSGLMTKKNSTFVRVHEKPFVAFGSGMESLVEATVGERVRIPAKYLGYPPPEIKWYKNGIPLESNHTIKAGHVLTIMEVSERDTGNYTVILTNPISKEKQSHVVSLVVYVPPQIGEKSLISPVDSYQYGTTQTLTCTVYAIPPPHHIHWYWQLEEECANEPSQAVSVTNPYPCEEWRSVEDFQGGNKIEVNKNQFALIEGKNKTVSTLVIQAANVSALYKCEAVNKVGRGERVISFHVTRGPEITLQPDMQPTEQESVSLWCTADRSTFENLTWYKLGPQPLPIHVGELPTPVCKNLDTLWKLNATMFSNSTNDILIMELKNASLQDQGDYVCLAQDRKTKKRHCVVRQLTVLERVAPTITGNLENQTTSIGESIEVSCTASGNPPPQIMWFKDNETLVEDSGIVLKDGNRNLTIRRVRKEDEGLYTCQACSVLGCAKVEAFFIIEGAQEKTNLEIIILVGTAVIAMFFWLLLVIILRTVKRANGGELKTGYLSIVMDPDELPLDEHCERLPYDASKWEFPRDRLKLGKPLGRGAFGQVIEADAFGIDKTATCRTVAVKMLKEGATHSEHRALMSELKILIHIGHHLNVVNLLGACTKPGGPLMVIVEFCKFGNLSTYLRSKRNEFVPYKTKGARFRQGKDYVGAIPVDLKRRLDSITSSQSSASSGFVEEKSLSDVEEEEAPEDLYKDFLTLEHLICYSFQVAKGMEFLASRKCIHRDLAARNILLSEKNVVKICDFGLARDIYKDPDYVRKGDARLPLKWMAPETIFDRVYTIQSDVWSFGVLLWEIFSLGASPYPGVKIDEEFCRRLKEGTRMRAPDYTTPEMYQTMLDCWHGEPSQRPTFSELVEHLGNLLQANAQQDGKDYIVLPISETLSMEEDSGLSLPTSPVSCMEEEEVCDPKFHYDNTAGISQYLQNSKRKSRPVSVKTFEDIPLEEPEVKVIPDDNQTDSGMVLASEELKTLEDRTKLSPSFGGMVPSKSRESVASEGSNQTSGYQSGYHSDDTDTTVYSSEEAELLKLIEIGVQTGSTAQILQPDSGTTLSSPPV

Cytochrome P450 2C9 = Cytochrome P450 2C9 (Homo sapiens, UniProt P11712); assay: Inhibition of CYP2C9 in human liver microsomes using diclofenac as substrate substrate in presence of NADPH by LC-MS/MS analysis; format: ADME
Cytochrome P450 2C9, sequence (P11712 whole entry): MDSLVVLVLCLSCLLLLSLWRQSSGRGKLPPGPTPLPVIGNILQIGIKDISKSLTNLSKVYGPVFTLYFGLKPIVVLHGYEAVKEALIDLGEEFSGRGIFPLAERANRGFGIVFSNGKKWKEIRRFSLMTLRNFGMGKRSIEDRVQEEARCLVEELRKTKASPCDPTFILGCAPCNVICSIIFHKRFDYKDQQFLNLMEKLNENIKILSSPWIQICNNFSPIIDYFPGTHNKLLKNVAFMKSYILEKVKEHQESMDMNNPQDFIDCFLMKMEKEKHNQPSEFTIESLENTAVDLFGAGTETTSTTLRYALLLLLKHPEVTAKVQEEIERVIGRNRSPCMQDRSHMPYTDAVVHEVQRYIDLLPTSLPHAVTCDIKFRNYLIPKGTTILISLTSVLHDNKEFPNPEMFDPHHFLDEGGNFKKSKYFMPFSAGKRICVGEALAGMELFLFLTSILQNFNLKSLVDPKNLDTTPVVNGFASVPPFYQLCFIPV

[10] = Half life in Sprague-Dawley rat at 2 mg/kg, po or 1 mg/kg, iv administered as cassette dose measured after 24 hrs; format: ADME, organism-based; details: in vivo
Cytochrome P450 3A4 = Cytochrome P450 3A4 (Homo sapiens, UniProt P08684); assay: Inhibition of CYP3A4 in human liver microsomes using midazolam or testosterone as substrate substrate in presence of NADPH by LC-MS/MS analysis; format: ADME
Cytochrome P450 3A4, sequence (P08684 whole entry): as the sequence (P08684 whole entry) above

[11] = Oral bioavailability in cynomolgus monkey at 2 mg/kg administered as cassette dose measured after 24 hrs; format: ADME, organism-based, Macaca fascicularis; details: in vivo
[12] = Volume of distribution at steady state in cynomolgus monkey at 2 mg/kg, po or 0.5 mg/kg, iv administered as cassette dose measured after 24 hrs; format: ADME, organism-based, Macaca fascicularis; details: in vivo, read-out: Vdss
[13] = Clearance in Sprague-Dawley rat at 2 mg/kg, po or 1 mg/kg, iv administered as cassette dose measured after 24 hrs relative to hepatic blood flow; format: ADME, organism-based; details: in vivo
[14] = Half life in cynomolgus monkey at 2 mg/kg, po or 0.5 mg/kg, iv administered as cassette dose measured after 24 hrs; format: ADME, organism-based, Macaca fascicularis; details: in vivo
[15] = Volume of distribution at steady state in Sprague-Dawley rat at 2 mg/kg, po or 1 mg/kg, iv administered as cassette dose measured after 24 hrs; format: ADME, organism-based; details: in vivo, read-out: Vdss
[16] = Clearance in cynomolgus monkey at 2 mg/kg, po or 0.5 mg/kg, iv administered as cassette dose measured after 24 hrs relative to hepatic blood flow; format: ADME, organism-based, Macaca fascicularis; details: in vivo
Cytochrome P450 2D6 = Cytochrome P450 2D6 (Homo sapiens, UniProt P10635); assay: Inhibition of CYP2D6 in human liver microsomes using bufuralol as substrate substrate in presence of NADPH by LC-MS/MS analysis; format: ADME
Cytochrome P450 2D6, sequence (P10635 whole entry): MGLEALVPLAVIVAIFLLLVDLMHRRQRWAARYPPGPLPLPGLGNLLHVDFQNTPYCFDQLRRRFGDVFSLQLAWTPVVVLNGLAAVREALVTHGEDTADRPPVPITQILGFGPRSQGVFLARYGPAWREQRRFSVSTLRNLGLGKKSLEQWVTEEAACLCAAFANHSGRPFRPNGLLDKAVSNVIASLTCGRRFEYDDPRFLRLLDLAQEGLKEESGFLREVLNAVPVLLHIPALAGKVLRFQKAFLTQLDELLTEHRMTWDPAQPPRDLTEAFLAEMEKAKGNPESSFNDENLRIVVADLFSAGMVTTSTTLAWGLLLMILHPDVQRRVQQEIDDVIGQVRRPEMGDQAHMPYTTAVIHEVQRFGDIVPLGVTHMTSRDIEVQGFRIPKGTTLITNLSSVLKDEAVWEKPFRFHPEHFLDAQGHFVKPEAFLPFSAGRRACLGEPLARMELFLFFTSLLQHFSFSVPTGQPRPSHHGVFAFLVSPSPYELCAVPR

[17] = AUC in Sprague-Dawley rat at 2 mg/kg, po or 1 mg/kg, iv administered as cassette dose measured after 24 hrs; format: ADME, organism-based; parameters: time 24 hrs, dose 2 mg/kg; details: in vivo
[18] = AUC in Sprague-Dawley rat at 5 mg/kg, po measured after 24 hrs; format: ADME, organism-based; parameters: route oral, dose 5 mg/kg, time 24 hrs; details: in vivo
Cytochrome P450 2C19 = Cytochrome P450 2C19 (Homo sapiens, UniProt P33261); assay: Inhibition of CYP2C19 in human liver microsomes using s-mephenytoin as substrate substrate in presence of NADPH by LC-MS/MS analysis; format: ADME
Cytochrome P450 2C19, sequence (P33261 whole entry): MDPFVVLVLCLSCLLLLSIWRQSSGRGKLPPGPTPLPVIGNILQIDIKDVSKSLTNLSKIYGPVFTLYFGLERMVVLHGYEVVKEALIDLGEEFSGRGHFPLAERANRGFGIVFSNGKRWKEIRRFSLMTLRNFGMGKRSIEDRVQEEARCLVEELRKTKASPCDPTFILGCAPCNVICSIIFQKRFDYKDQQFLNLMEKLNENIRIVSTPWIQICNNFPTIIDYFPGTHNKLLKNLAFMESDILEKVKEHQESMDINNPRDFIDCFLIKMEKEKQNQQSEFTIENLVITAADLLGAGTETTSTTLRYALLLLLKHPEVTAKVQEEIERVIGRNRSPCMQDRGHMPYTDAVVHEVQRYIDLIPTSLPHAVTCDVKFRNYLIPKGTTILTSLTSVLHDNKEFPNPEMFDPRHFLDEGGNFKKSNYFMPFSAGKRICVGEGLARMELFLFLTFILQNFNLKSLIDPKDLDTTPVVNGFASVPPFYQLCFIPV

[19] = Oral bioavailability in Sprague-Dawley rat at 5 mg/kg measured after 24 hrs; format: ADME, organism-based; details: in vivo
Cytochrome P450 1A2 = Cytochrome P450 1A2 (Homo sapiens, UniProt P05177); assay: Inhibition of CYP1A2 in human liver microsomes using 7-ethoxyresorufin as substrate substrate in presence of NADPH by LC-MS/MS analysis; format: ADME
Cytochrome P450 1A2, sequence (P05177 whole entry): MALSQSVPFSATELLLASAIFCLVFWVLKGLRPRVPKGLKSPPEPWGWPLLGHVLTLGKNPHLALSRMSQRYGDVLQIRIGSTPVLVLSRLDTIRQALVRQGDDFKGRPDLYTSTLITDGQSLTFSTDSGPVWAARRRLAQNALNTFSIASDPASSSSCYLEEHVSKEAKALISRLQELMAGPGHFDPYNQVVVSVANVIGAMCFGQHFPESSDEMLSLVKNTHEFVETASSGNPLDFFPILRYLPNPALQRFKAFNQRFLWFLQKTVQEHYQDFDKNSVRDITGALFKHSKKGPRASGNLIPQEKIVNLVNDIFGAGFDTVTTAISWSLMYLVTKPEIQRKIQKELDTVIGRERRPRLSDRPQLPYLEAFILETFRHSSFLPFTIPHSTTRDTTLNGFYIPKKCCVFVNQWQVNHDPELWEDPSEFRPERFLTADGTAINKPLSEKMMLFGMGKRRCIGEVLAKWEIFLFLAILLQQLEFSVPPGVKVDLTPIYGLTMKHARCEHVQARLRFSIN

[20] = AUC in cynomolgus monkey at 5 mg/kg, po measured after 24 hrs; format: ADME, organism-based, Macaca fascicularis; parameters: route oral, time 24 hrs, dose 5 mg/kg; details: in vivo
hERG (KCNH2) = hERG (KCNH2) (Homo sapiens, UniProt Q12809); assay: Inhibition of human ERG at 5 uM by patch clamp method relative to control
hERG (KCNH2), sequence (Q12809 whole entry): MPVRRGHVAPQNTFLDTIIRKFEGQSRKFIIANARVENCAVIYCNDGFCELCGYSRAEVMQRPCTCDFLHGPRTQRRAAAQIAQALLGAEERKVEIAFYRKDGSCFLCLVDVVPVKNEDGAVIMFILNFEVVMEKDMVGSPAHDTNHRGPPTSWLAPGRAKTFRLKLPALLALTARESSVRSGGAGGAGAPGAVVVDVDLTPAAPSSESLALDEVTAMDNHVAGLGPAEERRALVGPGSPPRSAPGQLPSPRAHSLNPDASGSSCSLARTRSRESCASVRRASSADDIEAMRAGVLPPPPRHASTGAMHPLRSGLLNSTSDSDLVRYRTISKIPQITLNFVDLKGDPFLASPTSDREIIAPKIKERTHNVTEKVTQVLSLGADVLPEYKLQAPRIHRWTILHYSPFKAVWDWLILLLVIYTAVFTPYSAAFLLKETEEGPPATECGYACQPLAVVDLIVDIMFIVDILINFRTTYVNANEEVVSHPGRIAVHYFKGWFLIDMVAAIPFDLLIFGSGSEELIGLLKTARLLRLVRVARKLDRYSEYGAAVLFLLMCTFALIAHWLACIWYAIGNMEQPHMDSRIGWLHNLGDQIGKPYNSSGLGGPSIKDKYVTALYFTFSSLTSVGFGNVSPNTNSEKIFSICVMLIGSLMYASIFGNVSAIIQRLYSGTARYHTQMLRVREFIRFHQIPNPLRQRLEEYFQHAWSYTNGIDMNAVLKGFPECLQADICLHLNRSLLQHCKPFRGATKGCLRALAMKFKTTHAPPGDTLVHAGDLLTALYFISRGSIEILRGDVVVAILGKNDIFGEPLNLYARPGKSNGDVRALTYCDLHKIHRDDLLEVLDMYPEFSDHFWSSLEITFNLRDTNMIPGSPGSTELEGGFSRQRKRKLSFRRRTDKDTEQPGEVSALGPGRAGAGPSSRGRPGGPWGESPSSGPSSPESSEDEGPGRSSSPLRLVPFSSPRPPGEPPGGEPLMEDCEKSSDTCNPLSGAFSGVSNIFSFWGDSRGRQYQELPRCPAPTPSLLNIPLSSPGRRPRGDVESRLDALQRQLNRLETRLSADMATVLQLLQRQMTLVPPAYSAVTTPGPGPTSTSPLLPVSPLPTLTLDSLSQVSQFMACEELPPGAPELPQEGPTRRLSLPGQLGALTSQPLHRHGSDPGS

[21] = AUC in cynomolgus monkey at 2 mg/kg, po or 0.5 mg/kg, iv administered as cassette dose measured after 24 hrs; format: ADME, organism-based, Macaca fascicularis; parameters: dose 2 mg/kg, time 24 hrs; details: in vivo
[22] = Half life in cynomolgus monkey at 2 mg/kg, po or 1 mg/kg, iv administered as cassette dose measured after 24 hrs; format: ADME, organism-based, Macaca fascicularis; details: in vivo
[23] = AUC in cynomolgus monkey at 2 mg/kg, po or 1 mg/kg, iv administered as cassette dose measured after 24 hrs; format: ADME, organism-based, Macaca fascicularis; parameters: time 24 hrs, dose 2 mg/kg; details: in vivo
[24] = Oral bioavailability in Sprague-Dawley rat at 2 mg/kg administered as cassette dose measured after 24 hrs; format: ADME, organism-based; details: in vivo
[25] = Volume of distribution at steady state in cynomolgus monkey at 2 mg/kg, po or 1 mg/kg, iv administered as cassette dose measured after 24 hrs; format: ADME, organism-based, Macaca fascicularis; details: in vivo, read-out: Vdss
[26] = Clearance in cynomolgus monkey at 2 mg/kg, po or 1 mg/kg, iv administered as cassette dose measured after 24 hrs relative to hepatic blood flow; format: ADME, organism-based, Macaca fascicularis; details: in vivo
CYP3A4 [27] = molecular target: T1, CYP3A4; assay: Time dependent inhibition of CYP3A4 in human liver microsomes at 10 uM using midazolam as substrate substrate preincubated for 30 mins in presence of NADPH followed by substrate addition and measured after 8 mins relative to control; format: ADME; details: probe midazolam, time 38 min, read-out: TDI
CYP3A4 [28] = molecular target: T1, CYP3A4; assay: Time dependent inhibition of CYP3A4 in human liver microsomes at 25 uM using midazolam as substrate substrate preincubated for 30 mins in presence of NADPH followed by substrate addition and measured after 8 mins relative to control; format: ADME; details: probe midazolam, time 38 min, read-out: TDI

IC50 [1] | solubility [4] | half-life [10] | bioavailability [11] | Vd [12] | CL [13] | half-life [14] | Vd [15] | CL [16] | AUC at 24 h [17] | AUC at 24 h [21] | bioavailability [24] | inhibition at 8 min, 10 µM (CYP3A4 [27]) | SMILES | other results
25 nM | 77 µg/mL (≈ 158 µM) |  |  |  |  |  |  |  |  |  |  |  | COc1cc(OC)c(F)c(N2Cc3cnc4c(c3N(c3cccc(F)c3F)C2=O)CC(=O)N4)c1F | IC50 (NCI-H1581): 18 nM; IC50 [2]: 3.9 nM; inhibition at 30 mins, 20 µM (CYP3A4 [3]): 30%
20 nM | 10 µg/mL (≈ 24.7 µM) | 1.1 h | 73% | 0.46 L/kg | 11% | 2.1 h | 0.51 L/kg | 11% | 27.3 µM·h | 12.1 µM·h |  |  | CCN1C(=O)N(c2c(F)c(OC)cc(OC)c2F)Cc2cnc3c(c21)CC(=O)N3 | bioavailability [5]: 17%; Papp A→B at 2 h, 50 µM [6]: 5.7 ×10⁻⁶ cm/s; IC50 [7]: 407 nM; CLint scaled at 1 µM [8]: 10 mL/min/kg; IC50 [9]: 288 nM; IC50 (Cytochrome P450 2C9): > 25000 nM; IC50 (Cytochrome P450 3A4): > 25000 nM; IC50 (Cytochrome P450 2D6): > 25000 nM; AUC at 24 h [18]: 8.7 µM·h; IC50 (Cytochrome P450 2C19): > 25000 nM; bioavailability [19]: 17%; IC50 (Cytochrome P450 1A2): > 25000 nM; AUC at 24 h [20]: 6.41 µM·h; inhibition at 5 µM (hERG (KCNH2)): 0%
29 nM | 17 µg/mL (≈ 35.9 µM) | 1.4 h | 53% |  | 31% |  | 1.25 L/kg |  | 8.19 µM·h |  | 100% | 4% | COc1cc(OC)c(F)c(N2Cc3cnc4[nH]c(CN5CCOCC5)cc4c3N(C)C2=O)c1F | half-life [22]: 7.9 h; AUC at 24 h [23]: 11.8 µM·h; Vd [25]: 0.74 L/kg; CL [26]: 8%
24 nM | 942 µg/mL (≈ 1880 µM) | 11.9 h | 26% | 0.41 L/kg | 51% | 12 h | 5.12 L/kg | 8% | 1.17 µM·h | 5.87 µM·h | 49% | 14% | CCN1CCN(Cc2cc3c4c(cnc3[nH]2)CN(c2c(F)c(OC)cc(OC)c2F)C(=O)N4C)CC1 | inhibition at 8 min, 25 µM (CYP3A4 [28]): 45%

Source: ChEMBL document CHEMBL4808209 (J Med Chem, 2021)
